Columns and labels:
[1] = system: p42^ERK2 and p44^ERK1; assay: ERK activation by anti-phospho-ERK Western blotting of cell lysates; type: cell-based, mouse; settings: for ERK activation in Sertoli cells: Lindane 50 µM, DDT 1.8 µM, Bϕ 90 µM, PCP 15 µM; for effect on Lindane-induced ERK activation: pretreatment, PD98059 10 µM, NPPB 25 µM, 90 min
Text: (§1) After stripping, equal loadings of proteins were verified by reprobing the blots with anti-ERK1 (Santa Cruz Biotechnology).

[2] = system: Sertoli cell; settings: reported, ref (84); cited from earlier work
[3] = system: Sertoli 42GPA9 cells; assay: Autophagic vacuolation of Sertoli cells (light, electron and confocal microscopy); type: cell-based, mouse; settings: for induction of vacuolation / autophagy by the chemical alone: Lindane 50 µM, DDT 1.8 µM, Bϕ 90 µM, PCP 15 µM, SB203580 10 µM, NH4Cl 5 mM; for effect on Lindane-preformed vacuoles: added after vacuole formation; for effect on Lindane-induced vacuolation: pretreatment 90 min before Lindane 50 µM, 3 MA 30 mM, BafA1 100 nM, NPPB 25 µM
Experimental: Autophagy was induced either by starvation or by treatment with Lindane under nutrient-rich condition.
(§2) When bafilomycin A1 (BafA1, V-ATPase-specific inhibitor, 100 nM, Sigma); Park Davis Inhibitor PD98059 (MEK1-specific inhibitor, 10 µM, Cell Signaling), H89 (PKA inhibitor, 5 µM, Calbiochem), 3-Methyladenine (3 MA, autophagy-specific inhibitor, 10-30 mM, Sigma) or NPPB [5-nitro-2-(3-phenylpropylamino) benzoic acid, Cl^- channel blocker, 25 µM, Sigma] was used, it was added to the starvation medium for 90 min, prior to Lindane addition or nutrient deprivation.
The ultrastructural changes caused by Lindane or starvation in Sertoli and renal cells were analysed by transmission electron microscopy, as previously described (57). […] Cell pellets were then rinsed in cacodylate buffer, postfixed in 1% OsO4 for 1 h at 4°C, dehydrated through graded ethanol washes, and embedded in epoxy resin. Oriented […] sections were obtained with diamond knives, and representative areas were chosen for ultra-thin sectioning. […] 30-50 micrographs were taken randomly from each sample at primary magnification × 10,000.
Sertoli cells seeded on glass coverslips were transiently transfected with EGFP-Rab7 or MEK1^+-HA expression plasmids using Fugene 6 reagent (Roche), washed and allowed to recover overnight before addition of Lindane (50 µM). […] To determine the pH of the Lindane-induced vacuoles, living cells were stained with acridine-orange (5 µg/ml, Sigma), a membrane-permeable weak base whose fluorescence shifts from green at neutral pH to red in acidic compartments (59). 10 min later, cells were washed and directly observed under a confocal microscope.

[4] = system: CFTR^+/+ cells; assay: Starvation-induced autophagic death of CFTR+/+ renal cells; type: cell-based, mouse; settings: 16 hours nutrient deprivation
Experimental: (§3) For nutrient deprivation, cells were washed with DMEM and first starved in minimal medium lacking serum for 90 min. Cells were then washed again with PBS and deprived for up to 16 h in nutrient-free medium lacking amino acids, vitamins, and serum (HBSS, 0.1% BSA, 20 mM HEPES, Sigma #H8264). As controls, cells were incubated in this nutrient-free medium supplemented with a mixture of non essential amino acids (0.1 mM, GIBCO, #11140-035).
as §2

[5] = target: CFTR Cl^- channels (Homo sapiens, UniProt P13569); settings: NPPB 0.1 mM, glibenclamide 0.1 mM, external DIDS 1 mM; review (41); cited from earlier work
[6] = target: CFTR Cl^- channel (Mus musculus, UniProt P26361); assay: Whole-cell patch-clamp Cl- currents in Sertoli cells; type: cell-based; set-up: endogenous in cells; host or cells: Sertoli 42GPA9 cell line (mouse)
Experimental: Whole cell currents were monitored from Sertoli cells, CFTR^-/- and WT renal epithelial cells with an RK 400 amplifier (Biologic, Münster, Germany) as previously described (40). The bath (extracellular) solution consisted of 140 mM NMDGCl (N-methyl-D-glucamine chloride), 5 mM D-Glucose, 1 mM CaCl2, and 10 mM HEPES, pH 7.4. Patch pipette (intracellular) solution contained 140 mM NMDGCl, 5 mM D-Glucose, 5 mM EGTA, 5 mM MgATP, and 10 mM HEPES, pH 7.4. Osmolarity of both solutions was adjusted to 280 mOSM by adding mannitol. These solutions were designed to study Cl^- currents because Cl^- is the sole permeant ion in these conditions and to prevent Ca^2+ activated Cl^- currents by the addition of EGTA in the patch solution. After establishment of whole cell configuration, cells were stimulated by the addition of Lindane (50 µM), FSK (10 µM), vehicle (Me2S0 or ethanol) in the absence or the presence of NPPB (0.1mM), DIDS (4,4'-diisothiocyanatostilbene-2,2'-disulfonic acid, 1 mM, Sigma), glibenclamide (0.1mM, Sigma) or PD98059 (10 µM) in the bath solution. The cell membrane potential was clamped at -50mV and 400 ms pulses were applied from -100 to +120 mV with increments of 20 mV every 2 s. To generate whole cell current-voltage (I-V) relationship, membrane currents resulting from voltage stimuli were recorded for at least 3 min and analysed using an IBM-AT-compatible computer equipped with Digidata 1200 interface (Axon Instruments) and pCLAMP software (versions 5.51 and 6.0, Axon Instruments), respectively. Statistics-Results are expressed as mean ± S.E. of n observations using the Student's t test.

[7] = system: PKA; assay: CREB phosphorylation as readout of PKA activity; type: cell-based; settings: H89
Text: The emerging issue is therefore how Lindane could activate CFTR Cl^- currents. One possibility would be that Lindane directly activates CFTR, but this appears unlikely because it required minutes instead of seconds to increase Cl^- conductance. […] To further explore this hypothesis, we tested the effect of Lindane on the renal proximal cell line (PCT1). […] Of particular interest, we provide several lines of evidence that the CFTR Δex10 channels remained functional in response to Lindane in PCT cells. […] These finding provide the first evidence that an agonist, e.g. Lindane, could activate CFTR Cl- current independently of PKA, raising the promise for new strategies using Lindane to restore Cl-conductance in cystic fibrosis patients with CFTR variants on PKA sites.

[8] = system: p38; assay: p38 / Jun kinase activation by Western blotting of Sertoli cell lysates; type: cell-based, mouse; settings: Sertoli cell lysates treated for 15 min
Text: as §1

[9] = system: CFTR^-/- cells; assay: Starvation-induced autophagic death of CFTR-/- renal cells; type: cell-based, mouse; settings: nutrient-free medium
Experimental: as §3

CFTR Cl^- channel, sequence (P26361 whole entry): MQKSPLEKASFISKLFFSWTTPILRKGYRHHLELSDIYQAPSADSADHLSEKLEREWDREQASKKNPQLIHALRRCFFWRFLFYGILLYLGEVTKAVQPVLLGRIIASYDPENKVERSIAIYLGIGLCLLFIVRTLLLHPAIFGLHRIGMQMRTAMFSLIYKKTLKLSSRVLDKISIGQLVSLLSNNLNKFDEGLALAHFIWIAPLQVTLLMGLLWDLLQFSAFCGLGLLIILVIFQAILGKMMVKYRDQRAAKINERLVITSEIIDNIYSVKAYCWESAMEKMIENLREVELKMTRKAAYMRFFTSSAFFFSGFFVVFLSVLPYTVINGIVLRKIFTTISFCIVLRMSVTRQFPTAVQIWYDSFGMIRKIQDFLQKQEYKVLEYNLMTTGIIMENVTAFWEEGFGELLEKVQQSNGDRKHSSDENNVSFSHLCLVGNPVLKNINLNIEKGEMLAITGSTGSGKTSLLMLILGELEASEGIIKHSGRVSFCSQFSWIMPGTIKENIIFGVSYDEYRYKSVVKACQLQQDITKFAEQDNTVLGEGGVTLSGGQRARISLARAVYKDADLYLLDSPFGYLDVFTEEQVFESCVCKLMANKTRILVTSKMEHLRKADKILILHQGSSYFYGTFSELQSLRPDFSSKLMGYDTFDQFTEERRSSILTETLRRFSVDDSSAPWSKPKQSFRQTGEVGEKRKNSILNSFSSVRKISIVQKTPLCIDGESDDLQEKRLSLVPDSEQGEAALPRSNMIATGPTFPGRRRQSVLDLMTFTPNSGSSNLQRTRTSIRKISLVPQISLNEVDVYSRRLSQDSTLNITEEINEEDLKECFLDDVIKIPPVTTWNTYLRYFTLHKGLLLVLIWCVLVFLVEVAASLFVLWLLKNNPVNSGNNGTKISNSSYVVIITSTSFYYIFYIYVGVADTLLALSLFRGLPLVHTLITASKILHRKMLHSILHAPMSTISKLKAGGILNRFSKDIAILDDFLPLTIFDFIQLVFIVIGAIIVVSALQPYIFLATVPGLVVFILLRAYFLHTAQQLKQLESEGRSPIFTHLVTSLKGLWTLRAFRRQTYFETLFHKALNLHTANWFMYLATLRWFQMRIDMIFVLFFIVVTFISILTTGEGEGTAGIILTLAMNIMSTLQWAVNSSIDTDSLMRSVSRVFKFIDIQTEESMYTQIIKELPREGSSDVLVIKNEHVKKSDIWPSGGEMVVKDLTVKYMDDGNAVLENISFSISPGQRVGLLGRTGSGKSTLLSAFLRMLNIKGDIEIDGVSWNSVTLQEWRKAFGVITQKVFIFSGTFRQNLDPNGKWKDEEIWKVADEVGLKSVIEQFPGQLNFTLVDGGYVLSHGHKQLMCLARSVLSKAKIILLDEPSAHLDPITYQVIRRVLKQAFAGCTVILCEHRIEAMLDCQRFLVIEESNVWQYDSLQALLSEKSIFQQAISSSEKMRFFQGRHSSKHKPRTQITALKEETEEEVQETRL
CFTR Cl^- channels, sequence (P13569 whole entry): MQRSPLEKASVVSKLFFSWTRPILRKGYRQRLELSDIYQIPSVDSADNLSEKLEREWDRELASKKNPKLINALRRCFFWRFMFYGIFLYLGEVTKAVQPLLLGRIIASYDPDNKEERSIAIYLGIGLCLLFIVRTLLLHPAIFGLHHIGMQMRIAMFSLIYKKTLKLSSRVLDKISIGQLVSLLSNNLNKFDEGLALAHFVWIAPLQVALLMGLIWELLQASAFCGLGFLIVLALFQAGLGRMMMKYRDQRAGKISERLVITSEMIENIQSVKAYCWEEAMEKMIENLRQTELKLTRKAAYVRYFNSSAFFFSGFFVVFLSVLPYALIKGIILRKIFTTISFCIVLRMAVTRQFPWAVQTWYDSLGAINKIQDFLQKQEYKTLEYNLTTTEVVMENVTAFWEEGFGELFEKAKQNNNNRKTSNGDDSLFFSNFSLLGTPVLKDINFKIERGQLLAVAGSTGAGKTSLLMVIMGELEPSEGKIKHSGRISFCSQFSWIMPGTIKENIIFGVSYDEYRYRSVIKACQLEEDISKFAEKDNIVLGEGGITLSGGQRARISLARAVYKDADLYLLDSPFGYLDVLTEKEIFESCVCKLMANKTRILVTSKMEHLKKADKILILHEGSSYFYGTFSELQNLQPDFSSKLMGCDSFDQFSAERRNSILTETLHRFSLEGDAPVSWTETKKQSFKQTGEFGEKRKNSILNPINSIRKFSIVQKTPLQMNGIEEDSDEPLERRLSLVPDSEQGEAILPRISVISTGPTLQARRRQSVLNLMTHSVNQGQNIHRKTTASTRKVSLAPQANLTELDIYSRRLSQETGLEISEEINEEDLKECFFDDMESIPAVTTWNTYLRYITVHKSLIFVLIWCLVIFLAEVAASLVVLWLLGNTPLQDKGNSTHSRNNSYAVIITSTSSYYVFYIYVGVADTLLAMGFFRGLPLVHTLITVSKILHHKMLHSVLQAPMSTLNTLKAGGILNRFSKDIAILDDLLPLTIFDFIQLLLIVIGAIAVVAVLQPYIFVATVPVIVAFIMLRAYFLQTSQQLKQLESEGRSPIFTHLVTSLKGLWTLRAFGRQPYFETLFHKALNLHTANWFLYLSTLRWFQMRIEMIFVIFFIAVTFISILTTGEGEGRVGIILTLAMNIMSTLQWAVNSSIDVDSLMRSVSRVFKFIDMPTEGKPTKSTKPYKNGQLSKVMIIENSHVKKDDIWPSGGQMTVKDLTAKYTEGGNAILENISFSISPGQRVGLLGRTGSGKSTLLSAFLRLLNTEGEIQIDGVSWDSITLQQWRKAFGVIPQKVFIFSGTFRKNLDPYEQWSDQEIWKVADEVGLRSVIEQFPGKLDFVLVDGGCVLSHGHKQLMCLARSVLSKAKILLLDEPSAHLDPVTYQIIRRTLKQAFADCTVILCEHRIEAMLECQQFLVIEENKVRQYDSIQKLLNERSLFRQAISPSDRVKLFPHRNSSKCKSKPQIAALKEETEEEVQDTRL

Clc1ccc(C(c2ccc(Cl)cc2)C(Cl)(Cl)Cl)cc1 [DDT]
ERK activation in Sertoli cells [1]: induced the activation of both p42^ERK2 and p44^ERK1
Sertoli cell vacuolation in vivo [2]: reported to promote Sertoli cell vacuolation
induction of vacuolation / autophagy by the chemical alone ([3]; 24 h): induced vacuolation

O=C(O)c1cc([N+](=O)[O-])ccc1NCCCc1ccccc1 [NPPB, 5-nitro-2-(3-phenylpropylamino) benzoic acid]
outcome of CFTR^+/+ cells under nutrient deprivation in the presence of inhibitor [4]: cell death
effect on Lindane-induced ERK activation [1]: still stimulated
effect on Lindane-preformed vacuoles [3]: collapsed Lindane-preformed vacuoles
effect on Lindane-induced vacuolation ([3]; 24 h, PD98059 10 µM): abrogated Lindane-induced vacuolation
sensitivity of CFTR Cl^- channels to blocker [5]: sensitive

COc1ccc(Cl)cc1C(=O)NCCc1ccc(S(=O)(=O)NC(=O)NC2CCCCC2)cc1 [glibenclamide]
sensitivity of CFTR Cl^- channels to blocker [5]: sensitive

COc1cccc(-c2cc(=O)c3ccccc3o2)c1N [PD98059]
effect on Lindane-induced CFTR Cl- conductance ([6]; PD98059 10 µM + Lindane): dramatically reduced
whole-cell I-V relationship with inhibitor alone ([6]; PD98059 alone): identical to control I-V
outcome of CFTR^+/+ cells under nutrient deprivation in the presence of inhibitor [4]: cell death
effect on Lindane-induced ERK activation [1]: drastically reduced the ability of Lindane to activate ERK
ultrastructure in the presence of inhibitor plus Lindane ([3]; PD98059 10 µM + Lindane, electron microscopy): dramatic accumulation of lamellar structures
effect on chloroquine-induced vacuolation ([3]; chloroquine 500 µM, 24 h, PD98059 10 µM): did not affect chloroquine-induced vacuolation
effect on Lindane-induced vacuolation ([3]; 24 h, PD98059 10 µM): abrogated Lindane-induced vacuolation

Cl.N [NH4Cl]
induction of vacuolation / autophagy by the chemical alone ([3]; 24 h): did not alter cell morphology
effect on toxicant-induced vacuole development ([3]; NH4Cl 5 mM added to medium): accelerated toxicant-induced vacuole development

O=S(=O)(NCCNCC=Cc1ccc(Br)cc1)c1cccc2cnccc12 [H89]
effect on Lindane-induced CREB phosphorylation [7]: failed to counteract Lindane-induced CREB phosphorylation

biphenol A
ERK activation in Sertoli cells [1]: induced the activation of both p42^ERK2 and p44^ERK1
induction of vacuolation / autophagy by the chemical alone ([3]; 24 h): induced vacuolation

Oc1c(Cl)c(Cl)c(Cl)c(Cl)c1Cl [Pentachlorophenol]
ERK activation in Sertoli cells [1]: strong activator of ERK1/2
Sertoli cell vacuolation in vivo [2]: does not
p38 activation [8]: concomitantly activated p38
induction of vacuolation / autophagy by the chemical alone ([3]; 24 h): no vacuolation was observed

Cn1cnc(N)c2ncnc1-2 [3 MA, 3-Methyladenine]
effect on starvation-induced death of CFTR^-/- cells [9]: arrested starvation-induced cell death
effect on Lindane-induced vacuolation ([3]; 24 h, PD98059 10 µM): dramatically reduced

CO/C1=C\C(C)=C\[C@@H](C)[C@@H](O)[C@@H](C)C/C(C)=C/C=C/[C@H](OC)[C@@H]([C@@H](C)[C@@H](O)[C@H](C)[C@@]2(O)C[C@@H](O)[C@H](C)[C@@H](C(C)C)O2)OC1=O [BafA1, bafilomycin A1]
effect on Lindane-preformed vacuoles [3]: collapsed Lindane-preformed vacuoles
effect on Lindane-induced vacuolation ([3]; 24 h, PD98059 10 µM): prevented their formation

From EP1655608A1, “CFTR as a component of an autophagy signaling pathway, applications thereof to autophagic diseases, and determination of cystic fibrosis as an autophagic disease” (priority 2004, dated 2006)
